Laboratory results published in the NIST ThermoML archive (doi:10.1016/j.tca.2006.01.020).

Assay: molar heat capacity at constant pressure
Details: 101.33 kPa, Crystal, Small (less than 1 g) adiabatic calorimetry

[Ba+2].[Ce+4].[O-2].[O-2].[O-2] [barium cerium(IV) oxide]
Details	molar heat capacity at constant pressure [J/K/mol]
1.721 K	0.00113
1.726 K	0.00106
1.733 K	0.00113
1.761 K	0.00102
1.781 K	0.00108
1.833 K	0.00116
1.87 K	0.00103
1.904 K	0.00103
1.995 K	0.00167
2.042 K	0.00152
2.096 K	0.00138
2.134 K	0.00153
2.178 K	0.0019
2.817 K	0.00505
2.844 K	0.00578
2.877 K	0.0056
3.154 K	0.00691
3.175 K	0.00697
3.25 K	0.00798
3.258 K	0.00871
3.318 K	0.00829
3.349 K	0.00913
3.382 K	0.00944
3.471 K	0.0093
3.57 K	0.01
3.673 K	0.0107
3.834 K	0.0118
3.983 K	0.0132
4.14 K	0.0143
4.241 K	0.0157
4.384 K	0.0171
4.454 K	0.0187
4.608 K	0.0193
4.68 K	0.0211
4.756 K	0.0223
4.835 K	0.0232
4.911 K	0.0245
4.992 K	0.026
5.071 K	0.0274
5.152 K	0.0284
5.227 K	0.0294
5.296 K	0.0316
5.375 K	0.0321
5.441 K	0.0353
5.536 K	0.0361
5.614 K	0.0388
5.697 K	0.0405
5.78 K	0.0425
5.861 K	0.0448
5.946 K	0.0466
6.034 K	0.0491
6.119 K	0.0516
6.209 K	0.0536
6.297 K	0.0571
6.366 K	0.057
6.457 K	0.0616
6.548 K	0.0639
6.647 K	0.0675
6.739 K	0.0705
6.841 K	0.0743
6.93 K	0.0778
7.04 K	0.0831
7.13 K	0.0857
7.24 K	0.0907
7.34 K	0.0935
7.45 K	0.0993
7.55 K	0.103
7.66 K	0.11
7.76 K	0.115
7.89 K	0.123
8 K	0.129
8.13 K	0.138
8.25 K	0.145
8.38 K	0.156
8.5 K	0.164
8.64 K	0.176
8.77 K	0.185
8.91 K	0.201
9.04 K	0.209
9.17 K	0.221
9.32 K	0.241
9.46 K	0.251
9.59 K	0.266
9.75 K	0.289
9.92 K	0.309
10 K	0.318
10.08 K	0.328
10.23 K	0.348
10.4 K	0.377
10.58 K	0.4
10.76 K	0.433
10.94 K	0.461
11.1 K	0.489
11.3 K	0.534
11.48 K	0.561
11.68 K	0.61
11.89 K	0.651
12.09 K	0.7
12.29 K	0.744
12.5 K	0.806
12.72 K	0.859
12.93 K	0.919
13.15 K	0.983
13.37 K	1.05
13.59 K	1.12
13.82 K	1.2
14.05 K	1.28
14.28 K	1.36
14.51 K	1.45
14.74 K	1.54
14.97 K	1.63
15.21 K	1.73
15.44 K	1.83
15.68 K	1.93
15.91 K	2.05
16.15 K	2.16
16.38 K	2.26
16.6 K	2.38
16.84 K	2.51
17.09 K	2.62
17.32 K	2.75
17.55 K	2.89
17.79 K	3.02
18.03 K	3.16
18.27 K	3.3
18.52 K	3.44
18.76 K	3.58
19 K	3.73
19.23 K	3.89
19.47 K	4.05
19.73 K	4.19
19.98 K	4.35
20 K	4.411
20.2 K	4.52
20.44 K	4.68
20.69 K	4.84
20.94 K	5
21.17 K	5.2
21.41 K	5.36
21.66 K	5.54
21.91 K	5.7
22.16 K	5.88
22.39 K	6.07
22.63 K	6.26
22.88 K	6.44
23.14 K	6.62
23.38 K	6.81
23.62 K	7
23.86 K	7.2
24.1 K	7.39
24.36 K	7.58
24.61 K	7.76
24.86 K	7.96
25.1 K	8.19
25.34 K	8.4
25.6 K	8.57
25.86 K	8.77
26.1 K	8.98
26.34 K	9.19
26.57 K	9.41
26.83 K	9.6
27.09 K	9.8
27.35 K	9.96
27.6 K	10.2
27.83 K	10.4
28.07 K	10.7
28.33 K	10.8
28.59 K	10.7
28.92 K	11.3
29.29 K	11.6
29.83 K	12.1
30 K	12.33
30.39 K	12.6
30.99 K	13.1
31.6 K	13.6
32.23 K	14.1
32.89 K	14.7
33.56 K	15.3
34.26 K	15.9
34.97 K	16.5
35.7 K	17.1
36.44 K	17.8
37.19 K	18.4
37.95 K	19.1
38.72 K	19.8
39.5 K	20.4
40 K	21.08
40.3 K	21.1
41.1 K	21.8
41.92 K	22.5
42.76 K	23.2
43.61 K	24
44.48 K	24.7
45.36 K	25.5
46.27 K	26.2
47.24 K	26.9
48.19 K	27.7
49.16 K	28.5
50 K	29.66
50.15 K	29.4
51.15 K	30.2
52.16 K	31
53.16 K	31.8
54.16 K	32.6
55.16 K	33.5
56.16 K	34.3
57.16 K	35.1
58.15 K	35.9
59.14 K	36.7
60 K	37.42
60.13 K	37.4
61.12 K	38.2
62.11 K	39
63.1 K	39.7
64.09 K	40.5
65.08 K	41.3
66.07 K	42
67.07 K	42.8
68.06 K	43.6
69.05 K	44.3
70 K	44.66
70.05 K	45
71.04 K	45.8
72.03 K	46.6
73.03 K	47.3
74.02 K	47.8
75.02 K	48.6
76.02 K	49.2
77.02 K	49.9
78.02 K	50.6
79.01 K	50.7
80 K	51.2
80.01 K	51.5
80.29 K	51
81.69 K	51.5
82.49 K	52
83.31 K	52.5
84.14 K	53.1
84.98 K	53.7
85.82 K	54.2
86.68 K	54.7
87.55 K	55.3
88.43 K	55.8
89.31 K	56.3
90 K	57.18
90.21 K	56.9
91.11 K	57.4
92.02 K	58
92.94 K	58.5
93.87 K	59.1
94.81 K	59.7
95.75 K	60.2
96.71 K	60.8
97.68 K	61.3
98.65 K	61.9
99.64 K	62.4
100 K	62.7
100.64 K	63
101.64 K	63.6
102.66 K	64.1
103.69 K	64.7
104.72 K	65.2
105.77 K	65.8
106.83 K	66.4
107.9 K	66.9
108.97 K	67.4
110.06 K	67.7
111.16 K	68.5
112.27 K	69.1
113.4 K	69.7
114.53 K	70.2
115.68 K	70.8
116.83 K	71.4
118 K	71.9
119.18 K	72.4
120 K	72.61
120.37 K	73
121.58 K	73.5
122.79 K	74
124.02 K	74.6
125.26 K	75.1
126.51 K	75.7
127.77 K	76.2
129.05 K	76.8
130.34 K	77.3
131.64 K	77.9
132.96 K	78.4
134.29 K	78.9
135.63 K	79.4
136.99 K	79.9
138.36 K	80.4
139.74 K	80.9
140 K	81.2
141.54 K	81.6
142.95 K	82.2
144.38 K	82.8
145.83 K	83.2
147.28 K	83.8
148.76 K	84.5
150.25 K	85
151.75 K	85.6
153.27 K	86.1
154.8 K	86.6
156.34 K	87.3
157.91 K	87.8
159.49 K	88.2
160 K	88.53
161.08 K	88.9
162.69 K	89.3
164.32 K	89.9
165.96 K	90.3
167.62 K	90.8
169.3 K	91.2
170.99 K	91.8
172.7 K	92.4
174.43 K	92.9
176.17 K	93.5
177.93 K	94
179.71 K	94.3
180 K	94.63
181.5 K	95.2
183.31 K	95.3
185.15 K	95.9
187 K	96.4
188.86 K	97.1
190.75 K	97.8
192.65 K	98
194.58 K	98.2
196.52 K	98.2
198.48 K	98.6
200 K	99.59
200.46 K	99.2
202.45 K	99.5
204.43 K	100
206.42 K	101
208.4 K	101.1
210.39 K	101.6
212.37 K	101.7
214.35 K	102.5
216.33 K	102.8
218.31 K	103.5
220 K	103.6
220.3 K	103.8
222.28 K	103.6
224.26 K	104.2
226.23 K	105.1
228.22 K	105
230.2 K	105.5
232.17 K	106.2
234.15 K	106.2
236.14 K	106.1
238.1 K	106.8
240 K	106.9
240.08 K	106.6
242.05 K	107.3
244.02 K	107.1
245.99 K	107.7
249.95 K	108.3
251.89 K	108.9
253.89 K	109.5
255.86 K	109.5
257.84 K	109.2
259.8 K	110.2
260 K	109.9
261.77 K	109.7
263.74 K	110.1
267.67 K	111
269.63 K	110.4
271.61 K	110.6
273.57 K	111.4
275.53 K	111.7
277.5 K	111.9
279.46 K	112.8
280 K	112.6
281.42 K	112.8
283.39 K	112
285.35 K	114
287.3 K	114.2
289.27 K	113.1
291.22 K	113.8
293.17 K	114.3
294.05 K	113.5
297.48 K	114.1
298.15 K	114.8
299.16 K	114.5
300 K	114.9
